# Experimental data taken from patent US8415356B2, “Isoquinolinone derivatives as NK3 antagonists” (H. Lundbeck A/S, priority 2008, dated 2013).
# Biological target: T1, human NK3 receptor (Homo sapiens, UniProt P29371)
# T1 construct: expressed in transfected cells; membranes prepared from them
# T1 sequence (P29371 1-465): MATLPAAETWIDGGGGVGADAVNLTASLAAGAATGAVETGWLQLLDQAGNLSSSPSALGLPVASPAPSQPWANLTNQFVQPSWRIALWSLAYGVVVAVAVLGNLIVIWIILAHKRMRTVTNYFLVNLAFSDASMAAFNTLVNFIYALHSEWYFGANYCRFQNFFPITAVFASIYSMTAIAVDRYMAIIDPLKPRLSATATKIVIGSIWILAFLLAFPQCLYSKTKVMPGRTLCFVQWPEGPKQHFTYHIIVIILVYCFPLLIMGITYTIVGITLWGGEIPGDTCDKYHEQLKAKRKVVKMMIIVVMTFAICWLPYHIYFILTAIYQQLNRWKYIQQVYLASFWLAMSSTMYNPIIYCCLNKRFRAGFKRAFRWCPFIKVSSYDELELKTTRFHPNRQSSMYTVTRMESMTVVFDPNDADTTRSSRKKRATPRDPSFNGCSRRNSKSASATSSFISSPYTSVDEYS
# Test: NK3 receptor binding assay (SPA-based competition binding with 125I-NKB)
# Settings: read-out: Affinity Ki/nM
# Experimental: Membrane preparation: BHK cells stably expressing the human NK3 receptor were seeded in harvesting plates in Dulbeccos MEM containing GlutaMax (862 mg/l), 1 mM sodium pyruvate, 10% fetal calf serum, 1% Pen/Strep, 1 mg/ml G418 and were grown at 34° C. in a humidified atmosphere containing 10% CO2. To increase receptor expression, 10 μM trichotatin A was added to the media 24 hours before harvest of the cells at a confluency of app 90%. Prior to the harvesting, the cells were washed twice with PBS without Mg^2+ og Ca^2+ and subsequently scrapped of in 10 ml PBS pr harvesting plate. The cells suspension were centrifuged at 1500×G in three minutes before resuspension in 15 mM Tris-HCl pH 7.5 buffer containing 2 mM MgCl2; 0.3 mM EDTA and 1 mM EGTA (buffer A). The cell suspention was homogenised and subsequently centrifuged at 40000×G in 30 minutes. The membrane-pellet was resuspended in buffer A containing 250 mM sucrose, aliquoted and stored at −80° C.
# Affinity assay description: The assay was performed as a SPA-based competition-binding assay in a 50 mM Tris pH 7.4 assay buffer containing 120 mM NaCl, 3 mM MnCl2, 40 μg/ml bacitracin, 2 μg/ml Chymostatin, 1 μg/ml Phosphoramidon and 4 μg/ml Leupeptin. […] The assay plate was subsequently under agitation incubated for 90 min at RT. The plate was centrifugated 10 minutes at 500×G and counted in a topcounter 5 minutes pr well.
row,SMILES,Ki [nM]
1,"CCc1nnc(-n2c(C)c(C(=O)N[C@H](c3cccc(F)c3)C3CC3)c3cccc(F)c3c2=O)s1 [2v, 2-(5-Ethyl-[1,3,4]thiadiazol-2-yl)-8-fluoro-3-methyl-1-oxo-1,2-dihydro-isoquinoline-4-carboxylic acid [(S)-cyclopropyl-(3-fluoro-phenyl)-methyl]-amide]",210
2,"Cc1c(C(=O)N[C@H](c2cccc(F)c2)C2CC2)c2cccc(F)c2c(=O)n1-n1cnnc1 [2u, 8-Fluoro-3-methyl-1-oxo-2-[1,2,4]triazol-4-yl-1,2-dihydro-isoquinoline-4-carboxylic acid [(S)-cyclopropyl-(3-fluoro-phenyl)-methyl]-amide]",200
3,"Cc1ccc(-n2c(C)c(C(=O)N[C@H](c3cccc(F)c3)C3CC3)c3cccc(F)c3c2=O)cn1 [2l, 8-Fluoro-3-methyl-2-(6-methyl-pyridin-3-yl)-1-oxo-1,2-dihydro-isoquinoline-4-carboxylic acid [(S)-cyclopropyl-(3-fluoro-phenyl)-methyl]-amide]",220
4,"Cc1c(C(=O)N[C@H](c2cccc(F)c2)C2CC2)c2cccc(F)c2c(=O)n1-c1ccc(Cl)nc1 [2d, 2-(6-Chloro-pyridin-3-yl)-8-fluoro-3-methyl-1-oxo-1,2-dihydro-isoquinoline-4-carboxylic acid [(S)-cyclopropyl-(3-fluoro-phenyl)-methyl]-amide]",120
5,"Cc1csc(-n2c(C)c(C(=O)N[C@H](c3cccc(F)c3)C3CC3)c3cccc(F)c3c2=O)n1 [2r, 8-Fluoro-3-methyl-2-(4-methyl-thiazol-2-yl)-1-oxo-1,2-dihydro-isoquinoline-4-carboxylic acid [(S)-cyclopropyl-(3-fluoro-phenyl)-methyl]-amide]",150
6,"Cc1c(C(=O)N[C@H](c2cccc(F)c2)C2CC2)c2cccc(F)c2c(=O)n1-c1cncnc1 [2k, 8-Fluoro-3-methyl-1-oxo-2-pyrimidin-5-yl-1,2-dihydro-isoquinoline-4-carboxylic acid [(S)-cyclopropyl-(3-fluoro-phenyl)-methyl]-amide]",110
7,"Cc1c(C(=O)N[C@H](c2cccc(F)c2)C2CC2)c2cccc(F)c2c(=O)n1-c1ccccn1 [2b, 8-Fluoro-3-methyl-1-oxo-2-pyridin-2-yl-1,2-dihydro-isoquinoline-4-carboxylic acid [(S)-cyclopropyl-(3-fluoro-phenyl)-methyl]-amide]",150

# Next, values leading:
row,Ki [nM],SMILES
1,15,"Cc1c(C(=O)N[C@H](c2cccc(F)c2)C2CCC2)c2cc(F)cc(F)c2c(=O)n1-c1cccnc1 [7c, 6,8-Difluoro-3-methyl-1-oxo-2-pyridin-3-yl-1,2-dihydro-isoquinoline-4-carboxylic acid [(S)-cyclobutyl-(3-fluoro-phenyl)-methyl]-amide]"
2,71,"Cc1c(C(=O)N[C@H](c2cccc(F)c2)C2CCC2)c2cccc(F)c2c(=O)n1-c1ccn(C)n1 [3f, 8-Fluoro-3-methyl-2-(1-methyl-1H-pyrazol-3-yl)-1-oxo-1,2-dihydro-isoquinoline-4-carboxylic acid [(S)-cyclobutyl-(3-fluoro-phenyl)-methyl]-amide]"
3,13,"CC(C)(C)N1CCN(Cc2c(C(=O)N[C@H](c3cccc(F)c3)C3CC3)c3cccc(F)c3c(=O)n2-c2cccnc2)CC1 [6a, 3-(4-tert-Butyl-piperazin-1-ylmethyl)-8-fluoro-1-oxo-2-pyridin-3-yl-1,2-dihydro-isoquinoline-4-carboxylic acid [(S)-cyclopropyl-(3-fluoro-phenyl)-methyl]-amide]"
4,110,"O=C(N[C@H](c1cccc(F)c1)C1CC1)c1c(CN2CCCC2=O)n(-c2cccnc2)c(=O)c2c(F)cccc12 [6b, 8-Fluoro-1-oxo-3-(2-oxo-pyrrolidin-1-ylmethyl)-2-pyridin-3-yl-1,2-dihydro-isoquinoline-4-carboxylic acid [(S)-cyclopropyl-(3-fluoro-phenyl)-methyl]-amide]"
5,96,"Cc1c(C(=O)N[C@H](c2cccc(F)c2)C2CC2)c2cccc(F)c2c(=O)n1-n1cccc1 [2ac, 8-Fluoro-3-methyl-1-oxo-2-pyrrol-1-yl-1,2-dihydro-isoquinoline-4-carboxylic acid [(S)-cyclopropyl-(3-fluoro-phenyl)-methyl]-amide]"
6,18,"Cc1c(C(=O)N[C@H](c2ccccc2)C2CCC2)c2cccc(F)c2c(=O)n1-c1cccnc1 [4a, 8-Fluoro-3-methyl-1-oxo-2-pyridin-3-yl-1,2-dihydro-isoquinoline-4-carboxylic acid ((S)-cyclobutyl-phenyl-methyl)-amide]"
7,33,"Cc1c(C(=O)N[C@H](c2cccc(F)c2)C2CC2)c2cccc(O)c2c(=O)n1-c1cccnc1 [8a, 8-Hydroxy-3-methyl-1-oxo-2-pyridin-3-yl-1,2-dihydro-isoquinoline-4-carboxylic acid [(S)-cyclopropyl-(3-fluoro-phenyl)-methyl]-amide]"

# System: not given
# Test: not given
# Settings: versus placebo; delusions, hallucinations and paranoia; cited from earlier work
row,SMILES,"effect in clinical trials, in particular on positive symptoms of psychosis"
1,"CC(=O)N(C)C1(c2ccccc2)CCN(CCC[C@]2(c3ccc(Cl)c(Cl)c3)CCCN(C(=O)c3ccccc3)C2)CC1 [Osanetant, osanetant]",superior to placebo

# System: not given
# Test: not given
# Settings: schizophrenics; cited from earlier work
row,SMILES,effect in clinical trials on cognitive behaviour
1,CC[C@H](NC(=O)c1c(O)c(-c2ccccc2)nc2ccccc12)c1ccccc1 [talnetant],ameliorate the cognitive behaviour
